Test results from patent US20130296311A1, “INHIBITORS OF HCV NS5A” (PRESIDIO PHARMACEUTICALS, INC., priority 2010, published 2013).

What follows are molecules tested on HCV 1b_Huh-Luc/Neo-ET cell line persistently expressing a bicistronic genotype 1b replicon in Huh 7 cells (assay: HCV replicon assay (luciferase readout, 72 h)). Details: Hepatitis C virus, Huh-7, 72 h, read-out: Inhibition of HCV genotype 1b.
Assay type: cell-based, HCV genotype 1b
Protocol: Biological activity of the compounds of the invention was determined using an HCV replicon assay. The HCV 1b_Huh-Luc/Neo-ET cell line persistently expressing a bicistronic genotype 1b replicon in Huh 7 cells was obtained from ReBLikon GMBH. This cell line was used to test compound inhibition using luciferase enzyme activity readout as a measurement of compound inhibition of replicon levels.
On Day 1 (the day after plating), each compound is added in triplicate to the cells. Plates incubated for 72 h prior to running the luciferase assay. Enzyme activity was measured using a Bright-Glo Kit (cat. number E2620) manufactured by Promega Corporation. The following equation was used to generate a percent control value for each compound.
% Control=(Average Compound Value/Average Control)*100
The EC50 value was determined using GraphPad Prism and the following equation:
Y=Bottom+(Top-Bottom)/(1+10̂((LogIC50−X)*HillSlope))
EC50 values of compounds are determined several times in the replicon assay.
Example compounds of the disclosed invention are illustrated in Tables 1-16 attached as appendices. The tables show inhibitory activity of many of the example compounds with respect to HCV 1b. […] The tables further provide mass spectrometry results for the synthesized example compounds.

Row | SMILES | EC50
1 | CC(C)[C@@H](NC(=O)N1CCCC1)C(=O)N1CCC[C@H]1c1ncc(-c2ccc(C#Cc3ccc(-c4cnc([C@@H]5CCCN5C(=O)[C@H](NC(=O)N5CCCC5)C(C)C)[nH]4)cc3)cc2)[nH]1 [Compound 293] | > 1000 nM
2 | COC(=O)N[C@@H](C(=O)N1CCC[C@H]1c1ncc(-c2ccc(C#Cc3ccc(-c4cnc([C@@H]5CCCN5C(=O)[C@H](OC)c5ccccc5)[nH]4)cc3)cc2)[nH]1)c1ccccc1 [Compound 179] | < 1 nM
3 | COC(=O)N[C@H](C(=O)N1CCC[C@H]1c1ncc(-c2ccc(C#Cc3ccc(-c4cnc([C@@H]5CCCN5C(=O)[C@@H](NC(=O)OC)C(C)(C)O)[nH]4)cc3)cc2)[nH]1)C(C)(C)O [Compound 993] | < 1 nM
4 | COC(=O)N[C@H](C(=O)N1CCC[C@H]1c1ncc(-c2ccc(C#Cc3ccc4nc([C@@H]5CCCN5)[nH]c4c3)cc2)[nH]1)C(C)C [Compound 1056] | 10 to 999 nM
5 | O=C(N[C@@H](C(=O)N1CCC[C@H]1c1ncc(-c2ccc(C#Cc3ccc(-c4cnc([C@@H]5CCCN5C(=O)[C@H](NC(=O)N5CCCCC5)c5ccccc5)[nH]4)cc3)cc2)[nH]1)c1ccccc1)N1CCCCC1 [Compound 250] | < 1 nM
6 | COC(=O)N[C@H](C(=O)N1CCC[C@H]1c1nc2c([nH]1)-c1ccc(C#Cc3ccc4nc([C@@H]5CCCN5C(=O)[C@H](NC(=O)OC)c5ccccc5)[nH]c4c3)cc1CC2)C(C)C [Compound 1103] | < 1 nM
7 | C[C@@H](NC(=O)[C@@H]1CCCN1C(=O)[C@H](NC(=O)OC(C)(C)C)c1ccccc1)c1ccc(C#Cc2cnc([C@@H]3CCCN3C(=O)[C@H](NC(=O)OC(C)(C)C)c3ccccc3)[nH]2)cc1 [Compound 129] | 10 to 999 nM
8 | COC(=O)N[C@H](C(=O)N1CCC[C@H]1c1ncc(-c2ccc(C#Cc3ccc(-c4cnc([C@@H]5CCCN5C(=O)[C@@H](c5ccccc5)N5CCOC5=O)[nH]4)cc3)cc2)[nH]1)C(C)C [Compound 1007] | < 1 nM
9 | COC(=O)N[C@H](C(=O)N1CCC[C@H]1c1ncc(-c2ccc(C#Cc3ccc(-c4cnc([C@@H]5CCCN5C(=O)[C@H](NC(=O)N5CCC(O)CC5)c5ccccc5)[nH]4)cc3)cc2)[nH]1)C(C)C [Compound 991] | 1 to 9.9 nM
10 | O=C(N[C@@H](C(=O)N1CCC[C@H]1c1ncc(-c2ccc(C#Cc3ccc(-c4cnc([C@@H]5CCCN5C(=O)[C@H](NC(=O)N5CC[C@@H](O)C5)c5ccccc5)[nH]4)cc3)cc2)[nH]1)c1ccccc1)N1CC[C@@H](O)C1 [Compound 252] | < 1 nM
11 | COC(=O)N[C@@H](CC(C)C)C(=O)N1CCC[C@H]1c1ncc(-c2ccc(C#Cc3ccc4nc([C@@H]5CCCN5C(=O)[C@H](CC(C)C)NC(=O)OC)[nH]c4c3)cc2)[nH]1 [Compound 1067] | < 1 nM
12 | CC[C@H](NC(=O)OC)C(=O)N1CCC[C@H]1c1ncc(-c2ccc(C#Cc3ccc(-c4cnc([C@@H]5CCCN5C(=O)[C@H](CC)NC(=O)OC)[nH]4)cc3)cc2)[nH]1 [Compound 960] | < 1 nM
13 | [2H]C([2H])([2H])C([2H])(C([2H])([2H])[2H])[C@]([2H])(NC(=O)OC)C(=O)N1CCC[C@H]1c1nc2ccc(C#Cc3ccc4c(c3)CCc3nc([C@@H]5CCCN5C(=O)[C@@H](NC(=O)OC)C(C)C)[nH]c3-4)cc2[nH]1 [Compound 1106] | < 1 nM
14 | COC(=O)N[C@H](C(=O)N1CCC[C@H]1c1ncc(-c2ccc(C#Cc3ccc(-c4cnc([C@@H]5CCCN5C(=O)[C@@H](NC(=O)OC)C(C)(C)O)[nH]4)cc3)cc2)[nH]1)C(C)C [Compound 994] | < 1 nM
15 | COC(=O)N[C@H](C(=O)N1CCC[C@H]1c1nc(-c2ccc3cc(C#Cc4cnc([C@@H]5CCCN5C(=O)[C@@H](NC(=O)OC)C(C)C)[nH]4)ccc3c2)c[nH]1)c1ccccc1 [Compound 1078] | < 1 nM
16 | COC(=O)N[C@H](C(=O)N[C@@H](C)c1ncc(-c2ccc(C#Cc3ccc(-c4cnc([C@@H]5CCCN5C(=O)[C@@H](NC(=O)OC)C(C)C)[nH]4)cc3)cc2)[nH]1)C(C)C [Compound 275] | < 1 nM
17 | CCN(CC)[C@@H](C(=O)N1CCC[C@H]1c1ncc(-c2ccc(C#Cc3ccc(-c4cnc([C@@H]5CCCN5C(=O)[C@H](NC(=O)OC)c5ccccc5)[nH]4)cc3)cc2)[nH]1)c1ccccc1 [Compound 175] | < 1 nM

Row | SMILES | EC50
18 | O=C(N[C@@H](C(=O)N1CCC[C@H]1C(=O)Nc1ccc(C#Cc2ccc(-c3cnc([C@@H]4CCCN4C(=O)[C@H](NC(=O)C4CC4)c4ccccc4)[nH]3)cc2)cc1)c1ccccc1)C1CC1 [Compound 166] | < 1 nM
19 | CC(C)(C)OC(=O)N[C@@H](C(=O)N1CCC[C@H]1C(=O)Nc1ccc(C#Cc2cnc([C@@H]3CCCN3C(=O)[C@H](NC(=O)OC(C)(C)C)c3ccccc3)[nH]2)cc1)c1ccccc1 [Compound 115] | < 1 nM
20 | O=C(N[C@@H](C(=O)N1CCC[C@H]1c1ncc(-c2ccc(C#Cc3ccc(-c4cnc([C@@H]5CCCN5C(=O)[C@@H](c5ccccc5)N5CCCCC5)[nH]4)cc3)cc2)[nH]1)c1ccccc1)C1CC1 [Compound 208] | < 1 nM
21 | O=C(N[C@@H](C(=O)N1CCC[C@H]1c1ncc(-c2ccc(C#Cc3ccc(-c4cnc([C@@H]5CCCN5C(=O)[C@H](NC(=O)N5CCOCC5)c5ccccc5)[nH]4)cc3)cc2)[nH]1)c1ccccc1)N1CCOCC1 [Compound 248] | < 1 nM
22 | COC(=O)N[C@@H](C(=O)N1CCC[C@H]1c1ncc(-c2ccc(C#Cc3ccc(C(=O)NC[C@@H]4CCCN4C(=O)[C@@H](c4ccccc4)N(C)C)cc3)cc2)[nH]1)c1ccccc1 [Compound 234] | < 1 nM
23 | COC(=O)N[C@H](C(=O)N[C@@H](C)c1ncc(-c2ccc(C#Cc3ccc(-c4cnc([C@@H]5CCCN5C(=O)[C@H](C(C)C)N(C)C)[nH]4)cc3)cc2)[nH]1)C(C)C [Compound 963] | 1 to 9.9 nM
24 | CC1(O)CCN(C(=O)N[C@@H](C(=O)N2CCC[C@H]2c2ncc(C#Cc3ccc(-c4ccc(-c5cnc([C@@H]6CCCN6C(=O)[C@H](NC(=O)N6CCC(C)(O)CC6)c6ccccc6)[nH]5)cc4)cc3)[nH]2)c2ccccc2)CC1 [Compound 870] | < 1 nM
25 | COC(=O)N[C@H](C(=O)N[C@@H](C)c1ncc(-c2ccc(C#Cc3ccc4nc([C@H](C)NC(=O)[C@@H](NC(=O)OC)C(C)C)[nH]c4c3)cc2)[nH]1)C(C)C [Compound 868] | < 1 nM
26 | COC(=O)N[C@@H](C(=O)N[C@@H](C)c1ncc(-c2ccc(C#Cc3ccc(-c4cnc([C@@H]5CCCN5C(=O)[C@H](NC(=O)OC)C(C)C)[nH]4)cc3)cc2)[nH]1)C(C)C [Compound 290] | > 1000 nM
27 | CC(C)(C)OC(=O)N[C@@H](C(=O)N1CCC[C@H]1CNC(=O)c1ccc(C#Cc2ccc(-c3cnc([C@@H]4CCCN4C(=O)[C@H](NC(=O)OC(C)(C)C)c4ccccc4)[nH]3)cc2)cc1)c1ccccc1 [Compound 192] | 1 to 9.9 nM
28 | COC(=O)N[C@@H](C(=O)N1CCC[C@H]1c1ncc(-c2ccc(C#Cc3ccc(C(=O)NC[C@@H]4CCCN4C(=O)[C@H](NC(=O)N4CCOCC4)c4ccccc4)cc3)cc2)[nH]1)c1ccccc1 [Compound 235] | < 1 nM
29 | COC(=O)N[C@H](C(=O)N1CCC[C@H]1c1ncc(C#Cc2ccc(-c3ccc4nc([C@@H]5CCCN5C(=O)[C@@H](NC(=O)OC)C(C)C)[nH]c4c3)nc2)[nH]1)C(C)C [Compound 1086] | < 1 nM
30 | O=C(N[C@@H](C(=O)N1CCC[C@H]1c1ncc(-c2ccc(C#Cc3ccc(-c4cnc([C@@H]5CCCN5C(=O)[C@H](NC(=O)N5CC[C@H](O)C5)c5ccccc5)[nH]4)cc3)cc2)[nH]1)c1ccccc1)N1CC[C@H](O)C1 [Compound 245] | < 1 nM
31 | CO[C@@H](C(=O)N1CCC[C@H]1c1ncc(-c2ccc(C#Cc3ccc(-c4cnc([C@@H]5CCCN5C(=O)[C@H](OC)c5ccccc5)[nH]4)cc3)cc2)[nH]1)c1ccccc1 [Compound 172] | < 1 nM
32 | COC(=O)N[C@@H](C(=O)N1CCC[C@H]1c1ncc(-c2ccc(C#Cc3ccc(-c4cnc([C@@H]5CCCN5C(=O)C5(c6ccccc6)CC5)[nH]4)cc3)cc2)[nH]1)c1ccccc1 [Compound 257] | < 1 nM
33 | COC(=O)N[C@@H](C(=O)N1CCC[C@H]1c1ncc(C#Cc2ccc(-c3ccc(-c4cnc([C@@H]5CCCN5C(=O)[C@H](NC(=O)OC)c5ccccc5)[nH]4)cc3)cc2)[nH]1)c1ccccc1 [Compound 750] | < 1 nM
34 | CC(C)(C)OC(=O)N[C@@H](C(=O)N1CCC[C@H]1c1cc(-c2ccc(C#Cc3ccc(-c4cnc([C@@H]5CCCN5C(=O)[C@H](NC(=O)OC(C)(C)C)c5ccccc5)[nH]4)cc3)cc2)n[nH]1)c1ccccc1 [Compound 210] | < 1 nM

Same assay, conditions: Hepatitis C virus, Huh-7, read-out: Inhibition of HCV genotype 1b

Row | SMILES | EC50
35 | COC(=O)N[C@H](C(=O)N1CCC[C@H]1c1nc2ccc(C#Cc3ccc(-c4cnc([C@@H]5CCCN5C(=O)[C@@H](NC(=O)OC)C5CCOCC5)[nH]4)cc3)cc2[nH]1)C(C)C [Compound 1237] | < 1 nM
36 | COC(=O)N[C@H](C(=O)N1CCC[C@H]1c1ncc(-c2ccc3cc(C#Cc4[nH]c([C@@H]5CCCN5C(=O)[C@@H](NC(=O)OC)C(C)C)nc4C#N)ccc3c2)[nH]1)C(C)C [Compound 1257] | < 1 nM
37 | COC(=O)N[C@H](C(=O)N1CCN(C(=O)OC)C[C@H]1c1ncc(-c2ccc(C#Cc3ccc4nc([C@@H]5CCCN5C(=O)[C@@H](NC(=O)OC)C5CCOCC5)[nH]c4c3)cc2)[nH]1)C(C)C [Compound 1229] | < 1 nM
38 | COC(=O)N[C@H](C(=O)N[C@@H](C)c1ncc(-c2ccc(C#Cc3ccc4nc([C@@H]5CCCN5C(=O)[C@@H](NC(=O)OC)C5CCOCC5)[nH]c4c3)cc2)[nH]1)C1CCOCC1 [Compound 1227] | 1 to 9.9 nM
